Here are results for two molecules from ChEMBL document CHEMBL1145707, “Methyl 4-hydroxy-3-(3'-methyl-2'-butenyl)benzoate, major insecticidal principle from Piper guanacastensis” (1997).

Structures are written as SMILES. Converted amounts (≈) assume the structure as drawn.

In this experiment the test system is Aedes atropalpus. Nature of the experiment: Insecticidal activity against Aedes atropalpus second-instar larvae after 24 hrs. The experiment is classed as functional.

Broadly, the LC50 is the concentration lethal to half of the exposed cells or organisms. High values mean a less lethal substance, low ones a more lethal substance.

`CCOC(=O)c1ccc(O)c(CC=C(C)C)c1` registered an LC50 of 25.7 µg/mL (≈ 110 µM).
On to `COC(=O)c1ccc(O)c(CC=C(C)C)c1`, for which the median lethal concentration (LC50) was determined as 20.5 µg/mL (≈ 93.1 µM). The LC50 values of the last two molecules are within 1.5-fold of each other.
